Common to all, as to test: two-electrode voltage clamp, Xenopus oocytes
Holding throughout (format): cell-based
Background: In two-electrode clamp one electrode senses voltage and the other passes current.

One test concerns the target T1, hTRESK (K2P18.1, KCNK18) (Homo sapiens, UniProt Q7Z418).
T1 construct: full-length cDNA in plasmid pEXO; cRNA injected into Xenopus laevis oocytes
T1 sequence (Q7Z418 1-384): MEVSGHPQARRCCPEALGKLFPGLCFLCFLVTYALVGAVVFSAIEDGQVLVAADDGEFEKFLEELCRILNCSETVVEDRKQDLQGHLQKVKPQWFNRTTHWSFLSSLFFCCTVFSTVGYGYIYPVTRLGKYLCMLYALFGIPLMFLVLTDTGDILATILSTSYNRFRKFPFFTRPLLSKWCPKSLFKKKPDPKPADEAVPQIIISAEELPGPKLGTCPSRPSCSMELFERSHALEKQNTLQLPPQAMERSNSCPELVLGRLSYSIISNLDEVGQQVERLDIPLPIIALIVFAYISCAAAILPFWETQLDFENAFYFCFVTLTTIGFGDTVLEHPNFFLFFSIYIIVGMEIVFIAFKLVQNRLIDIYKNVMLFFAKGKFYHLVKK
The note with it: read-out: TRESK. The source says:
two-electrode voltage clamp, Xenopus oocytes on hTRESK (K2P18.1, KCNK18)

The next test has as its target T2, hTASK-3 (K2P9.1, KCNK9) (Homo sapiens, UniProt Q9NPC2).
T2 construct: full-length cDNA in pBR4-TOPO (mutants in pCDNA3); cRNA injected into Xenopus laevis oocytes
The following applies: read-out: TASK-3. The source says:
two-electrode voltage clamp, Xenopus oocytes on hTASK-3 (K2P9.1, KCNK9)

The target of a further test is T3, hTASK-1 (K2P3.1, KCNK3) (Homo sapiens, UniProt O14649).
T3 construct: full-length cDNA in pIRES-CD8 vector; cRNA injected into Xenopus laevis oocytes
T3 sequence (O14649 whole entry): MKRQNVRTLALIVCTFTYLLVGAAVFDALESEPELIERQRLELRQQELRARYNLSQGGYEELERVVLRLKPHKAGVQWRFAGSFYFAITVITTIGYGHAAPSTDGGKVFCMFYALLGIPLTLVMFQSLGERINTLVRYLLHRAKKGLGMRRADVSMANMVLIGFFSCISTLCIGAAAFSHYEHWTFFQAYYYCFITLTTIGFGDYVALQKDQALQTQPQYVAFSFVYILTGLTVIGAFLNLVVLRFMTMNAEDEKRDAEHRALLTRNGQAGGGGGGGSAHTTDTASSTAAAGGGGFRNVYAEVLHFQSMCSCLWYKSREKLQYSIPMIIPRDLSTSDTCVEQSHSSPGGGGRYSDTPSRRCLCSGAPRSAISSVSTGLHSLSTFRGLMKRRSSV
The following applies: read-out: TASK-1. The source says:
two-electrode voltage clamp, Xenopus oocytes on hTASK-1 (K2P3.1, KCNK3)

The text below walks through data of publication PMC3831292 (Frontiers in Pharmacology, 2013).

T2 sequence (Q9NPC2 whole entry): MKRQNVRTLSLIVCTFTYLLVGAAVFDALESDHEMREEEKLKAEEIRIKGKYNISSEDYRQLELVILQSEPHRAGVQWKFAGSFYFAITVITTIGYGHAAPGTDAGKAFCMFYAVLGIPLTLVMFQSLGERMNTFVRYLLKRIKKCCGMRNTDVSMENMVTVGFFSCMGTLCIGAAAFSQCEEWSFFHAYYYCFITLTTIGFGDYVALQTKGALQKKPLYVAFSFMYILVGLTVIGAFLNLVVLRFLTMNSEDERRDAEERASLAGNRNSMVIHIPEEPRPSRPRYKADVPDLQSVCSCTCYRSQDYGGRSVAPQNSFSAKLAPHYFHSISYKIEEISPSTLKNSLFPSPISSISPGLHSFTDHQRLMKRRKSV

As to `CCCCC[C@H](O)CC(=O)CCc1ccc(O)c(OC)c1` [6-gingerol], the IC50 on hTRESK (K2P18.1, KCNK18) came out at 155 ± 70.9 µM; at hTASK-3 (K2P9.1, KCNK9), 385 ± 55.6 µM; on hTASK-1 (K2P3.1, KCNK3) it was 227 ± 46.5 µM.

As to `COc1cc(CNC(=O)CCCC/C=C/C(C)C)ccc1O` [capsaicin], the IC50 at hTRESK (K2P18.1, KCNK18) stood at 70.2 ± 5.3 µM; on hTASK-3 (K2P9.1, KCNK9) it was 41.8 ± 3.6 µM; at hTASK-1 (K2P3.1, KCNK3) it was 61.1 ± 4 µM.

For the compound `O=C(/C=C/C=C/c1ccc2c(c1)OCO2)N1CCCCC1` [piperine], the IC50 turned out to be 231 ± 105 µM at hTRESK (K2P18.1, KCNK18) and 133 ± 5.9 µM at hTASK-3 (K2P9.1, KCNK9).

For `CC1(C)CCC[C@]2(C)[C@@H](C=O)C(C=O)=CC[C@@H]12` [polygodial], the IC50 on hTASK-3 (K2P9.1, KCNK9) is 328 ± 24.7 µM; on hTASK-1 (K2P3.1, KCNK3) it was 485 ± 18.2 µM.
